Article PMC5218480 (PLoS ONE, 2017)

Test system: MV-4-11 cells
Test: Gene expression microarray analysis (Affymetrix PrimeView) and GSEA
Type: cell-based, human
Set-up: RFU PODN (11730768_x_at) / Fold change /veh PODN (11730768_x_at) / RFU LINC00158 (11744669_a_at) / Fold change /veh LINC00158 (11744669_a_at) / RFU DUSP10 (11751237_a_at) / Fold change /veh DUSP10 (11751237_a_at) / RFU ID3 (11757404_x_at) / Fold change /veh ID3 (11757404_x_at) / RFU PLEKHG5 (11737974_s_at) / Fold change /veh PLEKHG5 (11737974_s_at) / RFU LRRC4B (11730491_at) / Fold change /veh LRRC4B (11730491_at) / RFU GIMAP4 (11747438_a_at) / Fold change /veh GIMAP4 (11747438_a_at) / RFU KRT8 (11758183_x_at) / Fold change /veh KRT8 (11758183_x_at) / RFU CNN1 (11734310_a_at) / Fold change /veh CNN1 (11734310_a_at) / RFU VPS37D (11726825_at) / Fold change /veh VPS37D (11726825_at) / RFU C10orf10 (11716522_x_at) / Fold change /veh C10orf10 (11716522_x_at) / RFU KIR2DL2 /// KIR2DL4 /// KIR2DL5A /// KIR2DL5B /// KIR2DS1 /// KIR2DS2 /// KIR2DS3 /// KIR2DS4 /// KIR3DL3 /// KIR3DL3 /// KIR3DS1 (11738374_at) / Fold change /veh KIR2DL2 /// KIR2DL4 /// KIR2DL5A /// KIR2DL5B /// KIR2DS1 /// KIR2DS2 /// KIR2DS3 /// KIR2DS4 /// KIR3DL3 /// KIR3DL3 /// KIR3DS1 (11738374_at) / RFU C1QL1 (11718748_at) / Fold change /veh C1QL1 (11718748_at) / RFU TMPRSS4 (11747572_a_at) / Fold change /veh TMPRSS4 (11747572_a_at) / RFU HAMP (11756126_x_at) / Fold change /veh HAMP (11756126_x_at) / RFU RNFT2 (11725882_a_at) / Fold change /veh RNFT2 (11725882_a_at) / RFU NR4A2 (11747474_a_at) / Fold change /veh NR4A2 (11747474_a_at) / RFU ABCC12 (11746883_a_at) / Fold change /veh ABCC12 (11746883_a_at) / RFU TMEM136 (11760407_x_at) / Fold change /veh TMEM136 (11760407_x_at) / RFU CLDN22 /// WWC2 (11732394_at) / Fold change /veh CLDN22 /// WWC2 (11732394_at) / RFU HLA-DPB1 (11760878_x_at) / Fold change /veh HLA-DPB1 (11760878_x_at) / RFU SPINT1 (11716480_a_at) / Fold change /veh SPINT1 (11716480_a_at) / RFU GAP43 (11754022_s_at) / Fold change /veh GAP43 (11754022_s_at) / RFU A4GNT (11735810_at) / Fold change /veh A4GNT (11735810_at) / RFU PRB3 (11715151_x_at) / Fold change /veh PRB3 (11715151_x_at) / RFU TUBB4B (11761932_at) / Fold change /veh TUBB4B (11761932_at) / RFU CAPN14 (11732068_a_at) / Fold change /veh CAPN14 (11732068_a_at) / RFU TMCC2 (11721928_a_at) / Fold change /veh TMCC2 (11721928_a_at) / RFU IRGQ (11745062_a_at) / Fold change /veh IRGQ (11745062_a_at) / RFU FAM174B (11720279_a_at) / Fold change /veh FAM174B (11720279_a_at) / RFU TMPRSS4 (11748680_a_at) / Fold change /veh TMPRSS4 (11748680_a_at) / RFU FAM212B (11763350_a_at) / Fold change /veh FAM212B (11763350_a_at) / RFU PLEKHG5 (11743358_a_at) / Fold change /veh PLEKHG5 (11743358_a_at) / RFU ZSCAN30 (11745921_a_at) / Fold change /veh ZSCAN30 (11745921_a_at) / RFU CMKLR1 (11741424_a_at) / Fold change /veh CMKLR1 (11741424_a_at) / RFU LOC101060620 /// MAPK8IP1 (11723275_at) / Fold change /veh LOC101060620 /// MAPK8IP1 (11723275_at) / RFU SPTSSB (11747773_x_at) / Fold change /veh SPTSSB (11747773_x_at) / RFU PRSS12 (11739890_at) / Fold change /veh PRSS12 (11739890_at) / RFU BIN1 (11741810_x_at) / Fold change /veh BIN1 (11741810_x_at) / RFU WNT11 (11732464_a_at) / Fold change /veh WNT11 (11732464_a_at) / RFU C10orf10 (11716521_a_at) / Fold change /veh C10orf10 (11716521_a_at) / RFU C5orf56 (11738089_at) / Fold change /veh C5orf56 (11738089_at) / RFU CYB561 (11721691_x_at) / Fold change /veh CYB561 (11721691_x_at) / RFU ANKRD19P (11752326_a_at) / Fold change /veh ANKRD19P (11752326_a_at) / RFU OR2T12 /// OR2T33 /// OR2T8 (11738714_s_at) / Fold change /veh OR2T12 /// OR2T33 /// OR2T8 (11738714_s_at) / RFU VCAN (11748164_a_at) / Fold change /veh VCAN (11748164_a_at) / RFU JSRP1 (11732532_at) / Fold change /veh JSRP1 (11732532_at) / RFU KRTAP10-11 (11738290_x_at) / Fold change /veh KRTAP10-11 (11738290_x_at) / RFU MYO3A (11730013_a_at) / Fold change /veh MYO3A (11730013_a_at) / RFU EBF3 (11725865_a_at) / Fold change /veh EBF3 (11725865_a_at) / RFU CAMK2N1 (11719241_x_at) / Fold change /veh CAMK2N1 (11719241_x_at) / RFU C5orf56 (11738088_a_at) / Fold change /veh C5orf56 (11738088_a_at) / RFU OLFML3 (11715873_a_at) / Fold change /veh OLFML3 (11715873_a_at) / RFU LOC100653217 /// NTM (11731650_a_at) / Fold change /veh LOC100653217 /// NTM (11731650_a_at) / RFU MAPK11 (11762145_a_at) / Fold change /veh MAPK11 (11762145_a_at) / RFU FIZ1 (11724087_x_at) / Fold change /veh FIZ1 (11724087_x_at) / RFU OASL (11726364_x_at) / Fold change /veh OASL (11726364_x_at) / RFU SOX15 (11748057_x_at) / Fold change /veh SOX15 (11748057_x_at) / RFU CD79A (11719716_a_at) / Fold change /veh CD79A (11719716_a_at) / RFU HIST1H1D (11736915_at) / Fold change /veh HIST1H1D (11736915_at) / RFU CASKIN2 (11723855_a_at) / Fold change /veh CASKIN2 (11723855_a_at) / RFU LOC730098 (11760151_x_at) / Fold change /veh LOC730098 (11760151_x_at) / RFU OR4N2 (11742367_at) / Fold change /veh OR4N2 (11742367_at) / RFU PRRT2 (11749266_a_at) / Fold change /veh PRRT2 (11749266_a_at) / RFU SNX32 (11753110_a_at) / Fold change /veh SNX32 (11753110_a_at) / RFU CDHR5 (11726645_a_at) / Fold change /veh CDHR5 (11726645_a_at) / RFU RCAN1 (11760418_a_at) / Fold change /veh RCAN1 (11760418_a_at) / RFU FAM167A (11723789_a_at) / Fold change /veh FAM167A (11723789_a_at) / RFU FAM26E (11764081_at) / Fold change /veh FAM26E (11764081_at) / RFU ISYNA1 (11749810_s_at) / Fold change /veh ISYNA1 (11749810_s_at) / RFU ACY1 (11761880_at) / Fold change /veh ACY1 (11761880_at) / RFU 11764098_at / Fold change /veh 11764098_at / RFU SAMD14 (11745864_x_at) / Fold change /veh SAMD14 (11745864_x_at) / RFU NPB (11741838_a_at) / Fold change /veh NPB (11741838_a_at) / RFU TMPRSS6 (11731388_a_at) / Fold change /veh TMPRSS6 (11731388_a_at) / RFU KRTAP10-2 (11738614_at) / Fold change /veh KRTAP10-2 (11738614_at) / RFU ARHGAP8 /// PRR5-ARHGAP8 (11727945_x_at) / Fold change /veh ARHGAP8 /// PRR5-ARHGAP8 (11727945_x_at) / RFU KRTAP5-7 /// NADSYN1 (11734609_at) / Fold change /veh KRTAP5-7 /// NADSYN1 (11734609_at) / RFU RASL12 (11751679_a_at) / Fold change /veh RASL12 (11751679_a_at) / RFU CDKN2B (11736163_a_at) / Fold change /veh CDKN2B (11736163_a_at) / RFU PRF1 (11729649_at) / Fold change /veh PRF1 (11729649_at) / RFU, ZNF638 /// ZNF638-IT1 / Fold change vs veh, ZNF638 /// ZNF638-IT1 / RFU, PANK3 / Fold change vs veh, PANK3 / RFU, SH3YL1 / Fold change vs veh, SH3YL1 / RFU, ZEB2 / Fold change vs veh, ZEB2 / RFU, NRIP1 / Fold change vs veh, NRIP1 / RFU, PTTG1IP / Fold change vs veh, PTTG1IP / RFU, CAPN2 / Fold change vs veh, CAPN2 / RFU, MED14 / Fold change vs veh, MED14 / RFU, SNORA58 / Fold change vs veh, SNORA58 / RFU, C1orf63 / Fold change vs veh, C1orf63 / RFU, LRRFIP1 / Fold change vs veh, LRRFIP1 / RFU, NDUFAF7 / Fold change vs veh, NDUFAF7 / RFU, SLC12A2 / Fold change vs veh, SLC12A2 / RFU, IBTK / Fold change vs veh, IBTK / RFU, ESF1 / Fold change vs veh, ESF1 / Fold change vs veh, TMEM50B / RFU, TAOK1 / Fold change vs veh, TAOK1 / RFU, ACBD3 / Fold change vs veh, ACBD3 / RFU, TMA16 / Fold change vs veh, TMA16 / RFU, RWDD3 / Fold change vs veh, RWDD3 / RFU, BCAT1 / Fold change vs veh, BCAT1 / RFU, EDEM3 / Fold change vs veh, EDEM3 / RFU, TMEM33 / Fold change vs veh, TMEM33 / RFU, WDR75 / Fold change vs veh, WDR75 / RFU, AHCTF1 / Fold change vs veh, AHCTF1 / RFU, TFRC / Fold change vs veh, TFRC / RFU, ZDHHC17 / Fold change vs veh, ZDHHC17 / RFU, NOM1 / Fold change vs veh, NOM1 / RFU, ARL8B / Fold change vs veh, ARL8B / RFU, ZBTB11 / Fold change vs veh, ZBTB11 / RFU, TAMM41 / Fold change vs veh, TAMM41 / RFU, KIAA1704 /// LOC100996395 / Fold change vs veh, KIAA1704 /// LOC100996395 / RFU, ING1 / Fold change vs veh, ING1 / RFU, TRMT61B / Fold change vs veh, TRMT61B / RFU, FUBP3 / Fold change vs veh, FUBP3 / RFU, TP53 / Fold change vs veh, TP53 / RFU, TNKS2 / Fold change vs veh, TNKS2 / RFU, ZFP14 / Fold change vs veh, ZFP14 / RFU, ACTR2 / Fold change vs veh, ACTR2 / RFU, PPP3R1 / Fold change vs veh, PPP3R1 / RFU, PIK3R1 / Fold change vs veh, PIK3R1 / RFU, HNRNPA1 / Fold change vs veh, HNRNPA1 / RFU, RNF170 / Fold change vs veh, RNF170 / RFU, ZNF28 / Fold change vs veh, ZNF28 / RFU, RNGTT / Fold change vs veh, RNGTT / RFU, OGT / Fold change vs veh, OGT / RFU, BRD1 / Fold change vs veh, BRD1 / RFU, MARS / Fold change vs veh, MARS / RFU, ZNF655 / Fold change vs veh, ZNF655 / RFU, FAHD1 / Fold change vs veh, FAHD1 / RFU, BDP1 / Fold change vs veh, BDP1 / RFU, LRRCC1 / Fold change vs veh, LRRCC1 / RFU, ARID1A / Fold change vs veh, ARID1A / RFU, ZNF146 / Fold change vs veh, ZNF146 / RFU, ZNF330 / Fold change vs veh, ZNF330 / RFU, GPN3 / Fold change vs veh, GPN3 / RFU, C9orf123 / Fold change vs veh, C9orf123 / RFU, N4BP2L2 / Fold change vs veh, N4BP2L2 / RFU, ARFIP1 / Fold change vs veh, ARFIP1 / RFU, FAM179B / Fold change vs veh, FAM179B / RFU, BCL10 / Fold change vs veh, BCL10 / RFU, UHRF1BP1L / Fold change vs veh, UHRF1BP1L / RFU, BET1 / Fold change vs veh, BET1 / RFU, CNOT2 / Fold change vs veh, CNOT2 / RFU, ZNF268 / Fold change vs veh, ZNF268 / Fold change vs veh, ZNF507 / RFU, DGCR2 / Fold change vs veh, DGCR2 / RFU, WDSUB1 / Fold change vs veh, WDSUB1 / Fold change vs veh, HSP90B1 /// MIR3652 / RFU, ADSS / Fold change vs veh, ADSS / RFU, GK / Fold change vs veh, GK / RFU, ZNF148 / Fold change vs veh, ZNF148 / RFU, TAF9 / Fold change vs veh, TAF9 / RFU, SLC1A5 / Fold change vs veh, SLC1A5 / RFU, SLMO2 / Fold change vs veh, SLMO2 / RFU, ABCC4 / Fold change vs veh, ABCC4 / RFU, LOC101060439 /// RAP1B / Fold change vs veh, LOC101060439 /// RAP1B / RFU, RFX7 / Fold change vs veh, RFX7 / RFU, GTPBP10 / Fold change vs veh, GTPBP10 / RFU, CNEP1R1 / Fold change vs veh, CNEP1R1 / RFU, BIVM-ERCC5 /// ERCC5 / Fold change vs veh, BIVM-ERCC5 /// ERCC5 / RFU, ILF3 / Fold change vs veh, ILF3 / RFU 11762660_at / Fold change /veh 11762660_at / RFU VCAN (11757783_s_at) / Fold change /veh VCAN (11757783_s_at) / RFU DDX43 (11728927_at) / Fold change /veh DDX43 (11728927_at) / RFU KRT8 (11758188_x_at) / Fold change /veh KRT8 (11758188_x_at) / RFU NKD1 (11759106_at) / Fold change /veh NKD1 (11759106_at) / RFU SRD5A1 (11742802_a_at) / Fold change /veh SRD5A1 (11742802_a_at) / RFU TPSAB1 /// TPSB2 (11721975_s_at) / Fold change /veh TPSAB1 /// TPSB2 (11721975_s_at) / RFU GSTM3 (11746129_a_at) / Fold change /veh GSTM3 (11746129_a_at) / RFU IL23R (11737362_x_at) / Fold change /veh IL23R (11737362_x_at) / RFU TMEM51 (11727254_a_at) / Fold change /veh TMEM51 (11727254_a_at) / RFU PIWIL2 (11732686_x_at) / Fold change /veh PIWIL2 (11732686_x_at) / RFU ORM1 (11744905_x_at) / Fold change /veh ORM1 (11744905_x_at) / RFU CCDC152 (11743942_at) / Fold change /veh CCDC152 (11743942_at) / RFU ECM1 (11717891_a_at) / Fold change /veh ECM1 (11717891_a_at) / RFU IL23R (11748794_a_at) / Fold change /veh IL23R (11748794_a_at) / RFU TNFAIP8L3 (11732012_x_at) / Fold change /veh TNFAIP8L3 (11732012_x_at) / RFU MBOAT4 (11741988_at) / Fold change /veh MBOAT4 (11741988_at) / RFU 11764193_at / Fold change /veh 11764193_at / RFU TMEM53 (11763286_at) / Fold change /veh TMEM53 (11763286_at) / RFU MAGEB2 (11727129_at) / Fold change /veh MAGEB2 (11727129_at) / RFU TMEM200A (11744735_a_at) / Fold change /veh TMEM200A (11744735_a_at) / RFU CCDC152 (11751479_a_at) / Fold change /veh CCDC152 (11751479_a_at) / RFU FAM211A (11726209_a_at) / Fold change /veh FAM211A (11726209_a_at) / RFU RGS16 (11746705_a_at) / Fold change /veh RGS16 (11746705_a_at) / RFU VCAN (11755009_s_at) / Fold change /veh VCAN (11755009_s_at) / RFU RHOB (11743442_s_at) / Fold change /veh RHOB (11743442_s_at) / RFU RGS16 (11720943_a_at) / Fold change /veh RGS16 (11720943_a_at) / RFU RGS16 (11720944_at) / Fold change /veh RGS16 (11720944_at) / RFU, VPS4B / Fold change vs veh, VPS4B / RFU, CREB1 / Fold change vs veh, CREB1 / RFU, DNAJC13 / Fold change vs veh, DNAJC13 / RFU, GNAQ / Fold change vs veh, GNAQ / RFU, CDK5R1 / Fold change vs veh, CDK5R1 / RFU, ZRANB3 / Fold change vs veh, ZRANB3 / RFU, CUL4A / Fold change vs veh, CUL4A / RFU, CCNY / Fold change vs veh, CCNY / RFU, UFL1 / Fold change vs veh, UFL1 / RFU, COG3 / Fold change vs veh, COG3 / RFU, DIAPH2 / Fold change vs veh, DIAPH2 / RFU, SKA2 / Fold change vs veh, SKA2 / RFU, AFF3 / Fold change vs veh, AFF3 / RFU, LMF1 / Fold change vs veh, LMF1 / RFU, IPO11 / Fold change vs veh, IPO11 / RFU, DFFB / Fold change vs veh, DFFB / RFU, FOXP1 / Fold change vs veh, FOXP1 / RFU, CARD8 / Fold change vs veh, CARD8 / RFU, STRN3 / Fold change vs veh, STRN3 / RFU, ADK / Fold change vs veh, ADK / RFU, RASSF2 / Fold change vs veh, RASSF2 / RFU, WIPF1 / Fold change vs veh, WIPF1 / RFU, LARP1B / Fold change vs veh, LARP1B / RFU, RASA1 / Fold change vs veh, RASA1 / RFU, RB1 / Fold change vs veh, RB1 / RFU, PPFIA1 / Fold change vs veh, PPFIA1 / RFU, MAT2A / Fold change vs veh, MAT2A / RFU, CCT5 / Fold change vs veh, CCT5 / RFU, WDR92 / Fold change vs veh, WDR92 / RFU, CUX1 / Fold change vs veh, CUX1 / RFU, TTC7A / Fold change vs veh, TTC7A / RFU, TMEM135 / Fold change vs veh, TMEM135 / RFU, DEPTOR / Fold change vs veh, DEPTOR / RFU, CPM / Fold change vs veh, CPM / RFU, DNAJB6 / Fold change vs veh, DNAJB6 / RFU, CACNA2D3 / Fold change vs veh, CACNA2D3 / RFU, DTX4 / Fold change vs veh, DTX4 / RFU, TFCP2 / Fold change vs veh, TFCP2 / RFU, GMCL1 /// GMCL1P1 / Fold change vs veh, GMCL1 /// GMCL1P1 / RFU, AEBP2 / Fold change vs veh, AEBP2 / RFU, SNHG1 /// SNORD22 /// SNORD25 /// SNORD26 /// SNORD27 /// SNORD28 /// SNORD29 /// SNORD31 / Fold change vs veh, SNHG1 /// SNORD22 /// SNORD25 /// SNORD26 /// SNORD27 /// SNORD28 /// SNORD29 /// SNORD31 / Fold change (Aza/veh), C12orf56 (ProbeSet 11735607_a_at) / Fold change (ACY-1035/veh), C12orf56 (ProbeSet 11735607_a_at) / Fold change (Aza/veh), FGFR1OP (ProbeSet 11751329_s_at) / Fold change (ACY-1035/veh), FGFR1OP (ProbeSet 11751329_s_at) / Fold change (Aza/veh), VPS36 (ProbeSet 11739960_a_at) / Fold change (ACY-1035/veh), VPS36 (ProbeSet 11739960_a_at) / RFU SYPL1 (11715823_x_at) / Fold change /veh SYPL1 (11715823_x_at) / RFU IGFBP7 (11715501_s_at) / Fold change /veh IGFBP7 (11715501_s_at) / RFU REEP3 (11722064_at) / Fold change /veh REEP3 (11722064_at) / RFU IGLL1 (11728026_x_at) / Fold change /veh IGLL1 (11728026_x_at): dose or concentration left out as unconfirmed
Conditions: ProbeSet 11762504_a_at; LIST D

Nc1ccc(-c2cccs2)cc1NC(=O)c1ccc2c(c1)cc(C1CC1)n2CCN1CCOCC1 [ACY-1035]
RFU, ZRANB3: 82.93 RFU
